One data set relates to Alternaria solani. The data set can be described thus: In vivo preventive test on Alternaria solani (tomato). To be noted: 500 ppm of active ingredient, evaluated 7 days after inoculation. The protocol:
Solvent: 49 parts by weight of N,N-dimethylformamide Emulsifier: 1 part by weight of Alkylarylpolyglycolether To produce a suitable preparation of active compound, 1 part by weight of active compound is mixed with the stated amounts of solvent and emulsifier, and the concentrate is diluted with water to the desired concentration. To test for preventive activity, young plants are sprayed with the preparation of active compound at the stated rate of application. One day after this treatment, the plants are inoculated with an aqueous spore suspension of Alternaria solani. The plants remain for one day in an incubation cabinet at approximately 22° C. and a relative atmospheric humidity of 100%. Then the plants are placed in an incubation cabinet at approximately 20° C. and a relative atmospheric humidity of 96%. The test is evaluated 7 days after the inoculation. 0% means an efficacy which corresponds to that of the untreated control while an efficacy of 100% means that no disease is observed.

The nature of data set [1]: log P by HPLC on reversed-phase column (C 18), EEC Directive 79/831 Annex V.A8. In kind it is physicochemical. As to conditions: HPLC on reversed-phase column (C 18); 40° C.; 0.1% aqueous formic acid and acetonitrile; linear gradient 10% to 90% acetonitrile. The protocol: In table 1, the log P values were determined in accordance with EEC Directive 79/831 Annex V.A8 by HPLC (High Performance Liquid Chromatography) on a reversed-phase column (C 18), using the method described below: Temperature: 40° C.; Mobile phases: 0.1% aqueous formic acid and acetonitrile; linear gradient from 10% acetonitrile to 90% acetonitrile. Calibration was carried out using unbranched alkan-2-ones (comprising 3 to 16 carbon atoms) with known log P values (determination of the log P values by the retention times using linear interpolation between two successive alkanones). lambda-max-values were determined using UV-spectra from 200 nm to 400 nm and the peak values of the chromatographic signals.

A further data set deals with Pyrenophora teres. The data set can be described thus: In vivo preventive test on Pyrenophora teres (barley). As to conditions: 500 ppm of active ingredient, evaluated 7-9 days after inoculation. The protocol:
Solvent: 49 parts by weight of N,N-dimethylformamide Emulsifier: 1 part by weight of alkylaryl polyglycol ether To produce a suitable preparation of active compound, 1 part by weight of active compound is mixed with the stated amounts of solvent and emulsifier, and the concentrate is diluted with water to the desired concentration. To test for preventive activity, young plants are sprayed with the preparation of active compound at the stated rate of application. One day after this treatment, the plants are inoculated with an aqueous spore suspension of Pyrenophora teres. The plants remain for 48 hours in an incubation cabinet at 22° C. and a relative atmospheric humidity of 100%. Then the plants are placed in a greenhouse at a temperature of approximately 20° C. and a relative atmospheric humidity of approximately 80%. The test is evaluated 7-9 days after the inoculation. 0% means an efficacy which corresponds to that of the untreated control while an efficacy of 100% means that no disease is observed.

Broadly, the logP is the decadic logarithm of the partition coefficient of the neutral form, usually between octanol and water. Lower therefore signals lower lipophilicity. Take `CCc1nn(C)c(F)c1C(=O)N1CCCCC1c1cccc(Cl)c1Cl` (stereo not drawn) [Example 72]: the Efficacy in the data set on Alternaria solani and in the data set with Pyrenophora teres was 95% throughout. The compound also yielded a logP in data set [1] of 3.62.

On to `Cn1nc(C(F)F)c(C(=O)N2CCCCC2c2ccc(Cl)cc2Cl)c1Cl` (stereo not drawn) [Example 80], for which the values for the Efficacy in the data set on Alternaria solani and with Pyrenophora teres were 100% and 95%, respectively. Further, in data set [1], the logP was 4.06.

As for `Cn1nc(C(F)F)c(C(=O)N2CCCCC2c2ccccc2Br)c1Cl` (stereo not drawn) [Example 90], the results for the Efficacy with Alternaria solani and in the data set on Pyrenophora teres were 90% and 95%, respectively. The same compound yielded a lipophilicity (logP) in data set [1] of 3.55.

For the compound `Cc1cc(C(=O)N2CCCCC2c2cccc(Br)c2)c(C)o1` (stereo not drawn) [Example 93], the Efficacy is recorded as 90% in the data set with Alternaria solani and 95% with Pyrenophora teres. For the same compound, the logP in data set [1] is recorded as 4.11.

As for `CCc1nn(C)c(F)c1C(=O)N1CCCCC1c1cccc(Br)c1` (stereo not drawn) [Example 94], the results for the Efficacy with Alternaria solani and in the data set on Pyrenophora teres were 100% and 70%, respectively. In data set [1], the logP is listed as 3.44.

For `Cn1nc(C(F)F)c(C(=O)N2CCCCC2c2cccc(Br)c2)c1Cl` (stereo not drawn) [Example 96], the Efficacy in the data set on Alternaria solani and in the data set with Pyrenophora teres was 100% in each case. This compound yielded a logP in data set [1] of 3.71.

In the case of `Cc1nn(C)c(F)c1C(=O)N1CCCCC1c1ccc(Br)cc1` (stereo not drawn) [Example 99], the Efficacy was 90% in the data set with Alternaria solani and 100% with Pyrenophora teres. This compound displayed a lipophilicity (logP) in data set [1] of 3.11.

On to `Cn1nc(C(F)F)c(C(=O)N2CCCCC2c2ccc(Br)cc2)c1Cl` (stereo not drawn) [Example 103], for which the Efficacy in the data set on Alternaria solani amounted to 80%; with Pyrenophora teres, 95%. Also, in data set [1], the logP is on record as 3.78.

Regarding `Cn1nc(C(F)F)c(C(=O)N2CCCCC2c2ccc(Br)cc2)c1F` (stereo not drawn) [Example 104], the values for the Efficacy with Alternaria solani and in the data set on Pyrenophora teres were 100% and 95%, respectively. Also, the logP in data set [1] stood at 3.60.

Turning to `Cn1nc(C(F)F)c(C(=S)N2CCCCC2c2ccc(Br)cc2)c1F` (stereo not drawn) [Example 105], the Efficacy in the data set with Alternaria solani and in the data set with Pyrenophora teres was 100% each time. This compound had a logP in data set [1] of 4.29.

With `Cc1nn(C)c(F)c1C(=O)N1CCCCC1c1cccc(Oc2ccccc2)c1` (stereo not drawn) [Example 113], the Efficacy with Alternaria solani came out at 94%; in the data set with Pyrenophora teres, 90%. Further, the logP in data set [1] stood at 3.60.

For the compound `Cn1nc(C(F)F)c(C(=O)N2CCCCC2c2cccc(Oc3ccccc3)c2)c1Cl` (stereo not drawn) [Example 114], the Efficacy in the data set with Alternaria solani came to 90%; in the data set on Pyrenophora teres, 80%. Moreover, the logP in data set [1] is given as 4.18.

For `Cc1cc(C(=O)N2CCCCC2c2ccc3ccccc3c2)c(C)o1` (stereo not drawn) [Example 120], the Efficacy stood at 80% with Alternaria solani and 70% with Pyrenophora teres. The same compound came in with a logP in data set [1] of 4.39.

With `Cn1nc(C(F)F)c(C(=O)N2CCCCC2c2ccc3ccccc3c2)c1Cl` (stereo not drawn) [Example 121], the Efficacy in the data set on Alternaria solani amounted to 80%; with Pyrenophora teres, 90%. This compound also gave a logP in data set [1] of 3.87.

Turning to `Cc1nn(C)c(F)c1C(=O)N1CCCCC1c1ccc(Br)s1` (stereo not drawn) [Example 124], the Efficacy was 95% in the data set on Alternaria solani and 100% in the data set on Pyrenophora teres. This compound came in with a logP in data set [1] of 3.13.

As to `CCc1nn(C)c(F)c1C(=O)N1CCCCC1c1ccc(Br)s1` (stereo not drawn) [Example 125], the Efficacy in the data set with Alternaria solani amounted to 90%; with Pyrenophora teres, 80%. The logP in data set [1] is given as 3.51.

Take `Cc1nn(C)c(F)c1C(=O)N1CCCCC1Cc1ccccc1` (stereo not drawn) [Example 129]: the values for the Efficacy in the data set with Alternaria solani and in the data set with Pyrenophora teres were 95% and 100%, respectively. In addition, in data set [1], the logP is 2.54.

Turning to `Cc1cc(C(=O)N2CCCCC2Cc2ccccc2)c(C)o1` (stereo not drawn) [Example 132], the Efficacy in the data set with Alternaria solani and in the data set with Pyrenophora teres was 90% throughout. Moreover, the logP in data set [1] is 3.58.

With `Cn1nc(C(F)F)c(C(=O)N2CCCCC2Cc2ccccc2)c1F` (stereo not drawn) [Example 134], the Efficacy with Alternaria solani and in the data set with Pyrenophora teres was 100% throughout. In data set [1], this compound came in with a logP of 3.09.

With `CCC(c1ccccc1)C1CCCCN1C(=O)c1c(C(F)F)nn(C)c1Cl` (stereo not drawn) [Example 135], the Efficacy with Alternaria solani worked out at 95%; with Pyrenophora teres it was 94%. The logP in data set [1] is recorded as 3.87.

For `CC(c1ccccc1)C1CCCCN1C(=O)c1c(C(F)F)nn(C)c1Cl` (stereo not drawn) [Example 137], the Efficacy in the data set with Alternaria solani and with Pyrenophora teres was 100% each time. In data set [1], this compound came in with a logP of 3.59.

For the compound `Cc1nc(C(F)F)c(C(=O)N2CCCCC2Cc2ccccc2C)s1` (stereo not drawn) [Example 142], the Efficacy is reported as 94% with Alternaria solani and 95% in the data set with Pyrenophora teres. In addition, the logP in data set [1] worked out at 3.50.

Regarding `Cc1cccc(CC2CCCCN2C(=O)c2c(C(F)F)nn(C)c2F)c1` (stereo not drawn) [Example 144], the Efficacy in the data set with Alternaria solani and in the data set on Pyrenophora teres was 100% each time. The logP in data set [1] worked out at 3.44.

Consider `Cc1cccc(CC2CCCCN2C(=O)c2sc(C)nc2C(F)F)c1` (stereo not drawn) [Example 145], for which the Efficacy is given as 75% in the data set with Alternaria solani and 80% in the data set with Pyrenophora teres. The same compound displayed a logP in data set [1] of 3.57.

Regarding `Cc1ccc(CC2CCCCN2C(=O)c2c(C(F)F)nn(C)c2F)cc1` (stereo not drawn) [Example 147], the Efficacy in the data set on Alternaria solani and with Pyrenophora teres was 100% throughout. This compound also registered a logP in data set [1] of 3.46.

With `Cc1ccc(CC2CCCCN2C(=O)c2sc(C)nc2C(F)F)cc1` (stereo not drawn) [Example 148], the Efficacy is on record as 94% in the data set on Alternaria solani and 95% in the data set with Pyrenophora teres. The same compound had a logP in data set [1] of 3.59.

For the compound `Cc1ccc(OCC2CCCCN2C(=O)c2c(C(F)F)nn(C)c2Cl)cc1` (stereo not drawn) [Example 149], the Efficacy in the data set on Alternaria solani and in the data set on Pyrenophora teres was 95% in each case. This compound also came in with a logP in data set [1] of 3.55.

`Cc1ccc(OCC2CCCCN2C(=O)c2c(C(F)F)nn(C)c2F)cc1` (stereo not drawn) [Example 150]: the Efficacy with Alternaria solani and with Pyrenophora teres was 100% each time. The compound further had a logP in data set [1] of 3.35.

Take `Cn1nc(C(F)F)c(C(=O)N2CCCCC2Cc2cccc(F)c2)c1F` (stereo not drawn) [Example 153]: the Efficacy with Alternaria solani and with Pyrenophora teres was 100% each time. Besides, the logP in data set [1] amounted to 3.13.

Take `Cc1nc(C(F)F)c(C(=O)N2CCCCC2Cc2ccc(F)cc2)s1` (stereo not drawn) [Example 154]: the Efficacy worked out at 89% in the data set with Alternaria solani and 100% in the data set with Pyrenophora teres. In data set [1], this compound showed a logP of 3.21.

Regarding `COc1ccccc1CC1CCCCN1C(=O)c1c(C(F)F)nn(C)c1F` (stereo not drawn) [Example 157], the Efficacy with Alternaria solani and in the data set on Pyrenophora teres was 100% each time. This compound registered a logP in data set [1] of 3.17.

Consider `COc1ccccc1CC1CCCCN1C(=S)c1c(C(F)F)nn(C)c1F` (stereo not drawn) [Example 160], for which the Efficacy was found to be 90% in the data set on Alternaria solani and 100% with Pyrenophora teres. The compound further displayed a logP in data set [1] of 3.87.

On to `CC(c1ccccc1Cl)C1CCCCN1C(=O)c1c(C(F)F)nn(C)c1Cl` (stereo not drawn) [Example 164], for which the Efficacy is 89% in the data set with Alternaria solani and 100% in the data set with Pyrenophora teres. The logP in data set [1] is given as 4.06.

For `Cn1nc(C(F)F)c(C(=O)N2CCCCC2Cc2cccc(C(F)(F)F)c2)c1F` (stereo not drawn) [Example 169], the Efficacy with Alternaria solani and in the data set with Pyrenophora teres was 100% throughout. Further, the log partition coefficient (logP) in data set [1] is on record as 3.59.

In the case of `Cn1nc(C(F)F)c(C(=O)N2CCCCC2COc2ccc3ccccc3c2)c1Cl` (stereo not drawn) [Example 172], the Efficacy was determined as 80% with Alternaria solani and 90% in the data set with Pyrenophora teres. Besides, in data set [1], the logP was 3.87.

With `Cn1nc(C(F)F)c(C(=O)N2CCCCC2COc2ccc3ccccc3c2)c1F` (stereo not drawn) [Example 173], the Efficacy with Alternaria solani is 100%; with Pyrenophora teres, 95%. Further, the logP in data set [1] is recorded as 3.68.

For the compound `Cn1nc(C(F)F)c(C(=O)N2CCCCC2CCc2ccccc2)c1F` (stereo not drawn) [Example 177], the Efficacy in the data set on Alternaria solani amounted to 100%; in the data set on Pyrenophora teres, 95%. Moreover, the logP in data set [1] was found to be 3.37.

With `Cn1nc(C(F)F)c(C(=S)N2CCCCC2CCc2ccccc2)c1F` (stereo not drawn) [Example 179], the Efficacy in the data set with Alternaria solani stood at 95%; in the data set on Pyrenophora teres it was 100%. For the same compound, in data set [1], the logP amounted to 4.06.

Turning to `Cc1cc(C)cc(OCCC2CCCCN2C(=O)c2c(C(F)F)nn(C)c2Cl)c1` (stereo not drawn) [Example 180], the Efficacy in the data set on Alternaria solani and in the data set on Pyrenophora teres was 80% throughout. In data set [1], this compound gave a logP of 4.11.

On to `Cc1cc(C)cc(OCCC2CCCCN2C(=O)c2c(C(F)F)nn(C)c2F)c1` (stereo not drawn) [Example 181], for which the Efficacy with Alternaria solani and in the data set on Pyrenophora teres was 100% each time. This compound also gave a logP in data set [1] of 3.92.

The values above are taken from patent publication US9545105B2, “1-(heterocyclic carbonyl) piperidines” (BAYER INTELLECTUAL PROPERTY GMBH, priority 2010, dated 2017).
